The record followed here is patent US9556183B2, “Substituted pyrazolylpyrazole derivative and use of same as herbicide” (KYOYU AGRI CO., LTD., priority 2013, dated 2017).

Each structure is given as a SMILES string.

Holding throughout (format): in vivo
In data set [1] the test system is Amaranthus retroflexus. The data set is described as follows: Farming soil treatment test. Conditions: soil surface spray prior to weed growth, 30 days. Here is the method:
(§1) Evaluation of herbicidal efficacy was carried out by comparing growth inhibition rate (%) with an untreated group, while evaluation of phytotoxicity was carried out by comparing growth inhibition rate (%) with the state of a complete eradication group, and were evaluated at 11 levels indicated below. [table] Field soil was filled into a 1/6000 are pot followed by seeding with Digitaria ciliaris, Chenopodium album and Amaranthus retroflexus and covering with soil. Wettable powder of compounds of formula (I) shown in Table 1 prepared in compliance with the preparation examples were diluted with water to the prescribed amount of chemical and uniformly sprayed onto each soil surface layer using 10 liters of sprayed water per are prior to weed growth following seeding. After treating for 30 days in a glass greenhouse at an average atmospheric temperature of 30° C., the herbicidal efficacy thereof was investigated. Evaluation of herbicidal efficacy was carried out in the same manner as the above-mentioned Test Example 1.

Data set [2] has as its system Chenopodium album. The data set is described as follows: Farming soil treatment test. Conditions: soil surface spray prior to weed growth, 30 days. Here is the method: as §1
Data set [3] relates to Digitaria ciliaris. The data set is described as follows: Farming soil treatment test. Conditions: soil surface spray prior to weed growth, 30 days. As for the experimental part:
as §1

The subject of the next data set is Rice plants. As to the kind of experiment: Paddy herbicidal activity test, phytotoxicity to transplanted rice. Conditions: rice transplanted at 2.0 leaf stage, 30 days. Here is the method: (§2) Rice paddy soil was filled into a 1/10000 are pot followed by the addition of suitable amounts of water and chemical fertilizer, kneading, seeding with Echinochloa crus-galli, Monochoria vaginalis and Scirpus juncoides and maintaining in an irrigated state at a water depth of 3 cm. Wettable powder of Target Compound (I) shown in Table 1 prepared in compliance with the preparation examples were diluted with a suitable amount of water, rice plants in the 2.0 leaf stage were transplanted during 3.5 leaf stage of Echinochloa crus-galli, and treated by dropping in chemical in the prescribed amount per are using a pipette. After treating for 30 days in a glass greenhouse at an average atmospheric temperature of 30° C., the herbicidal efficacy thereof was investigated. Evaluation of herbicidal efficacy was carried out by comparing growth inhibition rate (%) with an untreated group, while evaluation of phytotoxicity was carried out by comparing growth inhibition rate (%) with the state of a complete eradication group, and were evaluated at 11 levels indicated below. [table]

Data set [4] deals with Amaranthus retroflexus. As to the kind of experiment: Weed foliar treatment test. Conditions: foliar spray, 3 weeks. As for the experimental part:
(§3) Evaluation of herbicidal efficacy was carried out by comparing growth inhibition rate (%) with an untreated group, while evaluation of phytotoxicity was carried out by comparing growth inhibition rate (%) with the state of a complete eradication group, and were evaluated at 11 levels indicated below. [table] Soil was filled into a 1/6000 are pot followed by seeding with Digitaria ciliaris, Chenopodium album and Amaranthus retroflexus, covering with soil, and cultivating in a glass greenhouse at an average atmospheric temperature of 25° C. Wettable powder of Target Compound (I) shown in Table 1 prepared in compliance with the preparation examples were diluted with water to the prescribed amount of chemical and uniformly sprayed onto the weeds using 15 liters of sprayed water per are when Digitaria ciliaris had grown to the 1.0 to 2.0 leaf stage. After treating for 3 weeks in a glass greenhouse at an average atmospheric temperature of 25° C., the herbicidal efficacy thereof was investigated, Evaluation of herbicidal efficacy was carried out in the same manner as the above-mentioned Test Example 1.

Data set [5] deals with Chenopodium album. The data set is described as follows: Weed foliar treatment test. Conditions: foliar spray, 3 weeks. As for the experimental part:
as §3

The test system of data set [6] is Digitaria ciliaris. The data set is described as follows: Weed foliar treatment test. Conditions: foliar spray at 1.0 to 2.0 leaf stage of Digitaria ciliaris, 3 weeks. As for the experimental part:
as §3

For the next data set, the system named is Echinochloa crus-galli. The data set is described as follows: Paddy herbicidal activity test. Conditions: irrigated paddy pot, treated at 3.5 leaf stage of Echinochloa crus-galli, 30 days. As for the experimental part:
as §2

The subject of another data set is Scirpus juncoides. The data set is described as follows: Paddy herbicidal activity test. Conditions: irrigated paddy pot, 30 days. As for the experimental part: as §2
In another data set the test system is Monochoria vaginalis. As to the kind of experiment: Paddy herbicidal activity test. Conditions: irrigated paddy pot, 30 days. Here is the method: as §2

`CC1CC1CNc1c(C#N)cnn1-c1nn2c(c1Cl)CCCC2` (centres unmarked) [Compound 12]: the “herbicidal efficacy (growth inhibition rate level) Amaranthus retroflexus” value in the data set on Amaranthus retroflexus [1] (5g a.i./10a), in the data set on Amaranthus retroflexus [1] (10g a.i./10a), in the data set on Amaranthus retroflexus [4] (5g a.i./10a) and with Amaranthus retroflexus [4] (10g a.i./10a) was 10 (10: 100%) each time. Moreover, the “herbicidal efficacy (growth inhibition rate level) Chenopodium album” value in the data set with Chenopodium album [2] (5g a.i./10a), in the data set with Chenopodium album [2] (10g a.i./10a), in the data set with Chenopodium album [5] (5g a.i./10a) and in the data set with Chenopodium album [5] (10g a.i./10a) was 10 (10: 100%) each time. For the same compound, the “herbicidal efficacy (growth inhibition rate level) Digitaria ciliaris” value in the data set with Digitaria ciliaris [3] (5g a.i./10a), in the data set with Digitaria ciliaris [3] (10g a.i./10a), in the data set with Digitaria ciliaris [6] (5g a.i./10a) and with Digitaria ciliaris [6] (10g a.i./10a) was 10 (10: 100%) in each case. The “phytotoxicity (growth inhibition rate level) Rice plants” value in the data set on Rice plants (1g a.i./10a) is 0 (0 (exponent): 0% to less than 10% (growth inhibition rate)); in the data set on Rice plants (5g a.i./10a), 1 (1: 10% to less than 20%). In addition, the “herbicidal efficacy (growth inhibition rate level) Echinochloa crus-galli” value is 9 (9: 90% to less than 100%) with Echinochloa crus-galli (1g a.i./10a) and 10 (10: 100%) with Echinochloa crus-galli (5g a.i./10a). Also, the “herbicidal efficacy (growth inhibition rate level) Scirpus juncoides” value in the data set with Scirpus juncoides (1g a.i./10a) and in the data set with Scirpus juncoides (5g a.i./10a) was 9 (9: 90% to less than 100%) in each case. Further, the “herbicidal efficacy (growth inhibition rate level) Monochoria vaginalis” value in the data set with Monochoria vaginalis (1g a.i./10a) was 8 (8: 80% to less than 90%); in the data set on Monochoria vaginalis (5g a.i./10a), 9 (9: 90% to less than 100%).

Regarding `N#Cc1cnn(-c2nn3c(c2Br)CCCC3)c1NCC1CC1` [Compound 147], the “herbicidal efficacy (growth inhibition rate level) Amaranthus retroflexus” value in the data set on Amaranthus retroflexus [1] (5g a.i./10a), with Amaranthus retroflexus [1] (10g a.i./10a), in the data set with Amaranthus retroflexus [4] (5g a.i./10a) and with Amaranthus retroflexus [4] (10g a.i./10a) was 10 (10: 100%) throughout. The “herbicidal efficacy (growth inhibition rate level) Chenopodium album” value with Chenopodium album [2] (5g a.i./10a), with Chenopodium album [2] (10g a.i./10a), with Chenopodium album [5] (5g a.i./10a) and in the data set on Chenopodium album [5] (10g a.i./10a) was 10 (10: 100%) throughout. For the same compound, the “herbicidal efficacy (growth inhibition rate level) Digitaria ciliaris” value in the data set with Digitaria ciliaris [3] (5g a.i./10a), with Digitaria ciliaris [3] (10g a.i./10a), in the data set on Digitaria ciliaris [6] (5g a.i./10a) and in the data set with Digitaria ciliaris [6] (10g a.i./10a) was 10 (10: 100%) each time. Moreover, the “phytotoxicity (growth inhibition rate level) Rice plants” value in the data set with Rice plants (1g a.i./10a) and in the data set on Rice plants (5g a.i./10a) was 0 (0 (exponent): 0% to less than 10% (growth inhibition rate)) each time. In addition, the “herbicidal efficacy (growth inhibition rate level) Echinochloa crus-galli” value in the data set on Echinochloa crus-galli (1g a.i./10a) is listed as 8 (8: 80% to less than 90%); in the data set on Echinochloa crus-galli (5g a.i./10a), 9 (9: 90% to less than 100%). The “herbicidal efficacy (growth inhibition rate level) Scirpus juncoides” value in the data set on Scirpus juncoides (1g a.i./10a) is listed as 7 (7: 70% to less than 80%); in the data set on Scirpus juncoides (5g a.i./10a) it was 9 (9: 90% to less than 100%). In addition, the entries for the “herbicidal efficacy (growth inhibition rate level) Monochoria vaginalis” value in the data set on Monochoria vaginalis (1g a.i./10a) and in the data set on Monochoria vaginalis (5g a.i./10a) were 7 (7: 70% to less than 80%) and 8 (8: 80% to less than 90%), respectively.

Consider `N#Cc1cnn(-c2nn3c(c2Br)CCCC3)c1N(CC1CC1)C(=O)C(F)(F)F` [Compound 148], for which the “herbicidal efficacy (growth inhibition rate level) Amaranthus retroflexus” value in the data set on Amaranthus retroflexus [1] (5g a.i./10a), in the data set on Amaranthus retroflexus [1] (10g a.i./10a), with Amaranthus retroflexus [4] (5g a.i./10a) and in the data set on Amaranthus retroflexus [4] (10g a.i./10a) was 10 (10: 100%) throughout. Moreover, the “herbicidal efficacy (growth inhibition rate level) Chenopodium album” value in the data set with Chenopodium album [2] (5g a.i./10a), in the data set with Chenopodium album [2] (10g a.i./10a), in the data set with Chenopodium album [5] (5g a.i./10a) and in the data set on Chenopodium album [5] (10g a.i./10a) was 10 (10: 100%) in each case. For the same compound, the “herbicidal efficacy (growth inhibition rate level) Digitaria ciliaris” value with Digitaria ciliaris [3] (5g a.i./10a), in the data set with Digitaria ciliaris [3] (10g a.i./10a), in the data set with Digitaria ciliaris [6] (5g a.i./10a) and in the data set with Digitaria ciliaris [6] (10g a.i./10a) was 10 (10: 100%) throughout. Also, the “phytotoxicity (growth inhibition rate level) Rice plants” value in the data set on Rice plants (1g a.i./10a) and with Rice plants (5g a.i./10a) was 0 (0 (exponent): 0% to less than 10% (growth inhibition rate)) in each case. For the same compound, the “herbicidal efficacy (growth inhibition rate level) Echinochloa crus-galli” value was 8 (8: 80% to less than 90%) in the data set with Echinochloa crus-galli (1g a.i./10a) and 10 (10: 100%) in the data set with Echinochloa crus-galli (5g a.i./10a). Also, the “herbicidal efficacy (growth inhibition rate level) Scirpus juncoides” value with Scirpus juncoides (1g a.i./10a) is listed as 7 (7: 70% to less than 80%); in the data set on Scirpus juncoides (5g a.i./10a), 9 (9: 90% to less than 100%). Further, the “herbicidal efficacy (growth inhibition rate level) Monochoria vaginalis” value with Monochoria vaginalis (1g a.i./10a) is reported as 7 (7: 70% to less than 80%); with Monochoria vaginalis (5g a.i./10a), 9 (9: 90% to less than 100%).

In the case of `N#Cc1cnn(-c2nn3c(c2Cl)CCCC3)c1NCC1CC1(F)F` (centres unmarked) [Compound 185], the “herbicidal efficacy (growth inhibition rate level) Amaranthus retroflexus” value with Amaranthus retroflexus [1] (5g a.i./10a), in the data set on Amaranthus retroflexus [1] (10g a.i./10a), in the data set on Amaranthus retroflexus [4] (5g a.i./10a) and in the data set with Amaranthus retroflexus [4] (10g a.i./10a) was 10 (10: 100%) in each case. In addition, the “herbicidal efficacy (growth inhibition rate level) Chenopodium album” value in the data set with Chenopodium album [2] (5g a.i./10a), in the data set with Chenopodium album [2] (10g a.i./10a), in the data set on Chenopodium album [5] (5g a.i./10a) and in the data set with Chenopodium album [5] (10g a.i./10a) was 10 (10: 100%) in each case. In addition, the “herbicidal efficacy (growth inhibition rate level) Digitaria ciliaris” value in the data set on Digitaria ciliaris [3] (5g a.i./10a), with Digitaria ciliaris [3] (10g a.i./10a), with Digitaria ciliaris [6] (5g a.i./10a) and in the data set on Digitaria ciliaris [6] (10g a.i./10a) was 10 (10: 100%) in each case. Besides, the “phytotoxicity (growth inhibition rate level) Rice plants” value with Rice plants (1g a.i./10a) was 0 (0 (exponent): 0% to less than 10% (growth inhibition rate)); in the data set on Rice plants (5g a.i./10a) it was 1 (1: 10% to less than 20%). Further, the “herbicidal efficacy (growth inhibition rate level) Echinochloa crus-galli” value in the data set on Echinochloa crus-galli (1g a.i./10a) and in the data set with Echinochloa crus-galli (5g a.i./10a) was 10 (10: 100%) each time. Also, the “herbicidal efficacy (growth inhibition rate level) Scirpus juncoides” value in the data set on Scirpus juncoides (1g a.i./10a) and with Scirpus juncoides (5g a.i./10a) was 10 (10: 100%) each time. In addition, the “herbicidal efficacy (growth inhibition rate level) Monochoria vaginalis” value with Monochoria vaginalis (1g a.i./10a) and in the data set with Monochoria vaginalis (5g a.i./10a) was 9 (9: 90% to less than 100%) each time.
